Assay [1] relates to sulfate reducing bacteria (SRB). Nature of the assay: Sterilization performance test (serial dilution counting of SRB). Type of assay: cell-based. The note with it: 60 mg/L, counted 24 hours later; for Number of SRB: no bactericide 2500000. Here is the method:
Before the test, all devices and glass containers were sterilized for 20 min at 121° C. The SRB strain was isolated from the formation water of an injection well in a shale gas field in China. SRB liquid medium was prepared according to NACE TMO194-94 standard.
The composition of the medium is as follows: Ig yeast powder, 0.1 g ascorbic acid, 0.2 g MgSO4·7H2O, 0.01 g K2HPO4, 10 g NaCl, 0.2 g (NH4)2Fe(SO4)2·6H2O, 4 mL sodium lactate, and 1000 mL deionized water. A portable pressure steam disinfection pot was used to sterilize the bacteria in the prepared medium. In the sterilization process, the temperature was kept at 120° C. for 15 min. It was then deoxidized with N2 for 2 h. 10% SRB was inoculated into the medium and placed in an incubator at 37° C. After 5 days, the number of SRB reached the peak value and remained stable.
Different bactericides were added into the cultured bacteria solution of 200 mL and counted 24 hours later.
Serial dilution method (triple repetition) was taken for the counting of SRB. Totally 10 dilution levels were provided. At each dilution level, there were three identical vials filled with 9 mL SRB medium. The measured sample of 1 mL was injected into a vial at the Level 0 and then shaken up. The 1 mL solution from the vial at the Level 0 was injected into a vial at the Level 1. The syringe for sampling the liquid each time was disposable to avoid affecting the final results. Similarly, the sample was diluted until the dilution reached Level 9. All vials were incubated at 35° C. for 14 days at a constant temperature.
The growth index should be determined according to the following principles: three dilution levels were selected from the dilution level at which negative vials appeared, and the number of positive vials was counted for each dilution level to obtain the index (When all the vials in a certain grade are negative, the previous grade is counted). The growth index (summarized according to 5.6.5.3 in SY/T 5329-1994) is obtained by multiplying the dilution factor 10^n of water sample (n is the number of dilutions before the index position). Check the corresponding bacteria count table and substitute the bacterial count detected by the index to get the content of this kind of bacteria in the water sample (Nr./mL).
The test results are shown in Table 1, in which the vials 1 to 10 are filled with 9 mL SRB medium (10^7). The dilution levels are numbered from Lev. 0 to Lev. 9. Take the measured sample of 1 mL into the Vial 1, indicating Level 0; take a new syringe and take 1 mL from Vial 1 to Vial 2, indicating Level 1; take a new syringe and take 1 mL from Vial 2 to Vial 3, indicating […]; the rest can be done in the same manner until 1 mL is taken from Vial 9 to Vial 10, indicating Level 9. “+” represents positive vial, and “−” represents negative vial.

Assay [2] is described as follows: Corrosion inhibition performance test (static uniform corrosion, SY/T 5273-2014). The note with it: 60 mg/L; N80 steel, corrosive solution pH 6.5, 37° C., 14 days. Here is the method:
The corrosive solution of 1 L was prepared, the pH was adjusted to 6.5, and the temperature was 37° C. at a normal pressure. The N80 steel specimens were processed with specifications of 30*15*3 and placed in corrosive solution. Three specimens were placed in each vial and different corrosion inhibitors were added respectively. The experiment lasted for 14 days.
After the test, the specimens were cleaned with stripping solution (100 ml hydrochloric acid+10 g hexamethylenetetramine+900 mL deionized water), then dehydrated by ethanol and blow-dried with N2. The determination method for static uniform corrosion inhibition rate was evaluated with referring to the Performance Index and Evaluation Method of Corrosion Inhibitor for Oilfield Produced Water Treatment (SY/T 5273-2014), the oil and gas industry standard of the People's Republic of China. The formulas of uniform corrosion rate and corrosion inhibition efficiency are as follows:
The corrosion inhibition test results are shown in Table 3, in which the corrosion inhibitors 1, 2 and 3 commonly used in oilfields are respectively the lauric acid imidazoline, abietic acid imidazoline and tetradecyl trimethyl ammonium bromide.

With `O=CCCCC=O` [Glutaraldehyde], in assay [1], the Growth index is reported as 200, the Sterilization rate came out at 64% and the “Number of SRB” value came out at 900000 Nr./mL. Regarding `CCCCCCCCCCCCCC[N+](C)(C)C.[Br-]` [Tetradecyl trimethyl ammonium bromide, tetradecyl trimethyl ammonium bromide], the Corrosion inhibition efficiency in assay [2] was determined as 90.9%. For `CCCCCCCCCCCC[N+](C)(C)Cc1ccccc1.[Cl-]` [Traditional bactericide 1227], in assay [1], the Growth index was found to be 210, the Sterilization rate worked out at 40% and the “Number of SRB” value is 1500000 Nr./mL. In the case of abietic acid imidazoline, the Corrosion inhibition efficiency in assay [2] was 93.9%. lauric acid imidazoline gave a Corrosion inhibition efficiency in assay [2] of 93.3%.
